Results as given in patent US9655879B2, “Heteroarylcarboxylic acid ester derivative” (EA Pharma Co., Ltd., priority 2012, dated 2017).

System: Zucker Fatty rats
Assay: Evaluation of hypoglycemic action
Assay type: in vivo, rat
Details: gavage 3 mg/kg, HCl salt form, 2 or 4 hours after dosing
Method: Zucker Fatty rats (male, 11-19 week-old, Charles River Japan, Inc.) known to spontaneously develop hyperglycemia were randomly assigned to the groups (6 per group). The animals were individually housed in a polycarbonate cage and allowed to drink water freely from a watering bottle. The animals in the compound groups were gavaged with compound No. 10, 87, 19, or 69 at the dose of 3 mg/kg. These compounds were used as HCl salt form thereof, converted by the method according to Example 3, step 6 from TFA salt form thereof upon the necessity. The animals in the control group were only treated with the vehicle (0.5% methylcellulose). Animals were allowed free access to the feed (CRF-1, Oriental Yeast Co., Ltd.) during the experiment. An aspirate of the blood (6 μL) was collected from the tail vein on the time point of immediately before dosing (time 0) as well as 2, 4, and 8 hours after dosing. The blood glucose levels were determined with ACCU-CHEK Aviva (Roche Diagnostics K.K.).

Structure (SMILES)	blood glucose levels compared with vehicle group
CCCN(CC(=O)O)C(=O)C(C)(C)Cc1ccc(C(=O)Oc2ccc(C(=N)N)cc2F)s1.Cl [Compound 10, N-{3-[5-(4-amidino-2-fluorophenoxycarbonyl)thiophen-2-yl]-2,2-dimethylpropionyl}-N-propylglycine hydrochloride]	significantly decreased
CCC(CC)(Cc1ccc(C(=O)Oc2ccc(C(=N)N)cc2F)s1)C(=O)N[C@@H](CC(=O)O)C(=O)O.Cl [Compound 19]	significantly decreased
CC(C)(Cc1ccc(C(=O)Oc2ccc(C(=N)N)cc2F)s1)C(=O)N[C@@H](C(=O)O)c1ccc(O)cc1 [Compound 69]	significantly decreased
